Entries after “also recorded” stand apart in the source; their conditions may differ. Read-outs that look alike come from different tables or passages of the source.
How the values were obtained:
α4β2 nAChR = α4β2 nAChR (Rattus norvegicus, UniProt P09483+P12390); type: binding; conditions: ratio of Ki values
α4β2* nAChR (native) = α4β2* nAChR (native) (Rattus norvegicus, UniProt P09483+P12390); assay: [3H]epibatidine binding competition, rat forebrain membranes
5-HT5A = 5-HT5A (Homo sapiens, UniProt P47898); assay: PDSP primary binding screen; conditions: read-out: %Inhibition 5-HT5A
β3 adrenergic receptor = β3 adrenergic receptor (Homo sapiens, UniProt P13945); assay: PDSP primary binding screen; conditions: read-out: %Inhibition β3
[1] = molecular target: H1 histaminergic receptor (Homo sapiens, UniProt P35367); assay: PDSP primary binding screen; conditions: read-out: %Inhibition H1
M5 muscarinic receptor = molecular target: T1, M5 muscarinic receptor (Homo sapiens, UniProt P08912); assay: PDSP primary binding screen; conditions: read-out: %Inhibition M5
T1 sequence (P08912 1-532): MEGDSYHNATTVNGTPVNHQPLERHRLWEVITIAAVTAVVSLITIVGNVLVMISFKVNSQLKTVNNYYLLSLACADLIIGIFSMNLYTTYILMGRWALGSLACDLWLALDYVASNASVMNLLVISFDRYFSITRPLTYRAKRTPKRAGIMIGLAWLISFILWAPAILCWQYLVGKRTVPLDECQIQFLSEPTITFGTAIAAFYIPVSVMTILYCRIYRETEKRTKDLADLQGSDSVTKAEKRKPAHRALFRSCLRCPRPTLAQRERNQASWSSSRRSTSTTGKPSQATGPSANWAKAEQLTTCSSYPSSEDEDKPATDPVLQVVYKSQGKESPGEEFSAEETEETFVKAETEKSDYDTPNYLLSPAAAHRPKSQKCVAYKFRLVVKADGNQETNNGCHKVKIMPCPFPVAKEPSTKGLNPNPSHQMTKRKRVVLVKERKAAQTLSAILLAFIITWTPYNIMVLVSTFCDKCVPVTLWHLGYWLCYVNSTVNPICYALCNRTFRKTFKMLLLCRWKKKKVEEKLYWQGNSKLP

[2] = molecular target: DAT: Dopamine Transporter (Homo sapiens, UniProt Q01959); assay: PDSP primary binding screen; conditions: read-out: %Inhibition DAT
BALB/cJ male mice = type: in vivo, mouse
β2* nAChR = β2* nAChR (Mus musculus, UniProt O70174+Q9ERK7); assay: β2* nAChR ex vivo receptor occupancy in the thalamus; conditions: for receptor occupancy at 3 mg/kg: mouse, ip, read-out: ex vivo receptor occupancy at β2* receptors
[3] = In vitro metabolism with human liver microsomes; type: in vitro ADME; conditions: 1 µM
[4] = In vitro metabolism with mouse liver microsomes; type: in vitro ADME; conditions: 1 µM
[5] = test system: nine different CYP450 enzymes; assay: CYP450 inhibition; type: in vitro ADME
human α4β2-nAChR = human α4β2-nAChR (Homo sapiens, UniProt P17787+P43681); assay: 86Rb+ efflux assay in SH-EP1-hα4β2 cells; conditions: 86Rb+ ion flux assay
[6] = intraperitoneal, 1 mg/kg, 30 min before test

Row | SMILES | selectivity for α4β2- over α3β4-nAChR (α4β2 nAChR) | Ki (α4β2* nAChR (native)) [nM] | immobility in forced swim test (BALB/cJ male mice; [6]) | immobility in forced swim test (BALB/cJ male mice; intraperitoneal, 3 mg/kg) | immobility in forced swim test (BALB/cJ male mice; oral, 10 mg/kg) | receptor occupancy at 3 mg/kg (β2* nAChR) [%] | functional characterization at α4β2-nAChRs (human α4β2-nAChR) | also measured
1 | Cl.OCCCc1cc(-c2cncc(OC[C@@H]3CCN3)c2)on1 [Compound 3, 3-[5-[5-(2(S)-Azetidinylmethoxy)-3-pyridyl]-3-isoxazolyl]-1-propanol Hydrochloride] | ~15,000 fold | 1.9 ± 0.3 | insignificant trend | significant reduction in immobility | decreased the time immobile; also recorded: reduced immobility | 60 to 70 | partial agonist | inhibition at 10 µM (5-HT5A): -17.8%; inhibition at 10 µM (β3 adrenergic receptor): -17.7%; inhibition at 10 µM [1]: -19.9%; inhibition at 10 µM (M5 muscarinic receptor): -18.9%; inhibition at 10 µM [2]: -10.1%; immobility in forced swim test (BALB/cJ male mice; oral, 1 and 3 mg/kg): failed to show significant activity; immobility in forced swim test (Figure 5) (BALB/cJ male mice; oral, lowest dose): slightly higher; metabolism with human liver microsomes [3]: no detectable metabolism; metabolism with mouse liver microsomes [4]: no detectable metabolism; inhibitory potential towards nine different CYP450 enzymes [5]: no significant inhibition
2 | Cl.OCc1cc(-c2cncc(OC[C@@H]3CCN3)c2)on1 [Compound 4, 5-[5-(2(S)-Azetidinylmethoxy)-3-pyridyl]-3-isoxazolylmethanol Hydrochloride] | 20,000 fold | 0.61 ± 0.1 |  |  |  | 60 to 70 | partial agonists | immobility in forced swim test (Figure 3) (BALB/cJ male mice; intraperitoneal, highest dose only): insignificant trend
3 | Cl.OCCc1cc(-c2cncc(OC[C@@H]3CCN3)c2)on1 [Compound 5, 2-[5-[5-(2(S)-Azetidinylmethoxyl)-3-pyridyl]-3-isoxazolyl]ethanol Hydrochloride] |  |  | significant reduction in immobility | significant reduction in immobility | decreased the time immobile | ~80 |  | immobility in forced swim test (Figure 5) (BALB/cJ male mice; oral, all doses tested): efficacious; receptor occupancy (Figure 4, in words) (β2* nAChR; 3 mg/kg intraperitoneal, mice): higher receptor occupancy
4 | CN[C@H]1CC[C@@H](c2ccc(Cl)c(Cl)c2)c2ccccc21 [sertraline, reference compound] |  |  |  |  |  |  |  | immobility in forced swim test (Figure 5) (BALB/cJ male mice; positive control in oral study, 10 or 20 mg/kg): expected decrease in immobility; immobility in forced swim test (Figure 3) (BALB/cJ male mice; positive control, intraperitoneal, 10 or 20 mg/kg): expected decrease in immobility
